Measured values taken from US10022420B2, “Methods of synthesizing γ-AApeptides, γ-AApeptide building blocks, γ-AApeptide libraries, and γ-AApeptide inhibitors of Aβ40 aggregates” (UNIVERSITY OF SOUTH FLORIDA, priority 2013, dated 2018).

How the values were obtained:
[1] = biological target: T1, Aβ40 (Homo sapiens, UniProt P05067); experiment: Transmission electron microscopy (TEM) of Aβ40 fibrils; format: biochemical; conditions: HW-155-1 5 μM, 24 h
T1 construct: mouse 6e10 primary antibody which recognizes the first 16 amino acids of Aβ1-40
Protocol: FIGS. 15A-15D are TEM images illustrating monomeric Aβ40 in the absence (FIG. 15A) and presence (FIG. 15B) of HW-155-1 after 24 h and pre-aggregated Aβ40 in the absence (FIG. 15C) and presence (FIG. 15D) of HW-155-1 after 24 h. Bar=[…]; Aβ40 is 2.5 μM; and HW-155-1 is 5 μM. The ability of HW-155-1 to prevent Aβ aggregation was further confirmed by TEM (FIGS. 15A and 15B). In fact, HW-155-1 can even disassemble pre-formed Aβ fibrils (FIGS. 15C and 15D). In these experiments, the Aβ fibrils were not seen for 24 h after incubating HW-155-1 with Aβ40 monomers (prevention of aggregation) and pre-formed Aβ40 aggregates (disassembling aggregation). Aβ40 preparations were adsorbed onto 200-mesh copper grids for 1 hour (until it is dry), and then stained with 1% uranyl acetate for 20 sec. The excess fluid was removed and the grids were analyzed with FEI Morgagni 268D TEM operated at 60 kV.

[2] = test system: N2a neuroblastoma cells; experiment: MTT toxicity assay: Aβ42 aggregates on N2a cells; format: cell-based; conditions: final Aβ 1 μM, 24 h
Protocol: FIG. 16 is a bar graph illustrating detoxification of Aβ42 aggregates by HW-155-1. N2a cells were cultured with 1 μM of pre-aggregated Aβ42 in the absence/presence of HW-155-1 for 24 h.
The effect of HW-155-1 on the toxicity of Aβ aggregates towards N2a neuroblastoma cells was then examined. […] In contrast, pre-incubation of 0.5 equiv. of HW-155-1 with Aβ42 reduces the death of N2a cells to 25%, while the presence of 1 equiv.
In siliconized tubes, Aβ42 peptide of 10 μM (in F-12 medium) were pre-incubated with 0, 0.5 and 1 equiv. HW-155-1 AApeptide, respectively. These solutions were incubated on rotating shaker (Barnstead 400100) at 8 rpm in 37° C. for 24 h. Meanwhile, N2a cells were plated in 96-well plates (10000 cells/well) with triple replications for 24 h. Then pre-aggregated mixtures were added into each well to make the final Aβ concentration at 1 μM. The plate was incubated for another 24 h. Next, 10 μL MTT reagent was added to the cells. The plate was incubated for 4 h at 37° C. After the addition of 100 μL solubilization solution and incubation overnight, OD values were read at 575 nm. The final cell viability was calculated as: Cell viability %=(OD575−OD blank)/(ODctrl−OD blank)×100%.

[3] = biological target: T2, Aβ40 peptide (Homo sapiens, UniProt P05067); experiment: On-bead screening of OBOC γ-AApeptide library against Aβ40 peptide; format: binding; conditions: Aβ40 20 ug/mL, 6e10 antibody, anti-mouse IgG-dylight 549
T2 construct: mouse 6e10 primary antibody which recognizes the first 16 amino acids of Aβ1-40
Protocol: The γ-AApeptide library was screened to identify ligands that can bind to Aβ. The anti-aggregation efficiency of identified ligands was determined by functional assay afterwards. Thus, beads were incubated with the Aβ40 peptide, followed by the treatment of anti-Aβ antibody 6E10 (FIG. 10). Then, anti-mouse IgG-dylight 549 conjugate was added. Dylight 549 produces strong orange fluorescence, a region in which TentaGel beads have low background fluorescence (see Aquino, C. supra, 4, which is incorporated by reference herein regarding properties of TentaGel beads). The dye is also much less expensive than quantum dots. […]
In order to avoid any possible nonspecific binding, both the Aβ and antibodies solution were made in 1% BSA/TBST blocking buffer. […] The beads were washed with PBST completely and transferred into a 6-well plate to be observed under Zeiss inverted fluorescence microscope 10×43HE filter, and the orange bright beads were picked up for they had suspicious nonspecific binding.
The rest of the beads were pulled together, washed with PBST, and then treated with 1% SDS at 90° C. for ten minutes to remove any bound proteins. […] After washing and equilibrating in TBST overnight, the beads were ready for actual Aβ screening. […]
The beads were collected and washed with 1×PBST three times. […] Washed with water, DMSO, and acetonitrile, beads were then cleaved and analyzed using previous procedure. […]

[4] = biological target: T1, Aβ40; experiment: Thioflavin T (ThT) assay of Aβ40 aggregation; format: biochemical
Protocol: Aggregation control (100%) is set as the change of fluorescence of 2.5 μM Aβ40 in Tris (pH 7.5) buffer. The concentration of ThT is 5 μM. Excitation: 440 nm; emission: 482 nm. These two sequences were investigated for their capability to inhibit the aggregation of Aβ40 by ThT assay. […] Compounds in different concentrations in Tris buffer Saline (TBS, pH 7.5) containing 10 μM ThT were added into a black 96 well plate corning@3721. Aβ40 monomer was freshly thawed and used to make a stock solution in TBS with a concentration of 5 μM. Equal volume of Aβ solution was added into the 96 well palate (final Aβ concentration was 2.5 μM). Time-dependent fluorescence change was monitored by a Synergy 2 plate reader at an excitation wavelength of 440 nm and emission at 482 nm. After 24 h, the fluorescence change was recorded. 100% aggregation is the fluorescence change of 2.5 μM Aβ40 in TBS buffer containing 5 μM ThT.

T1 sequence (P05067 672-711 limits assumed): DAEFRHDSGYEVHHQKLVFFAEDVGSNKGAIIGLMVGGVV
T2 sequence (P05067 672-711 limits assumed): as above

Structure (SMILES): C=CCOC(=O)N(CC(=O)N[C@@H](Cc1ccccc1)CN(CC(=O)N[C@@H](CCCCN)CN(CC(=O)N[C@@H](CC(C)C)CN(CC(N)=O)C(=O)CC(C)C)C(=O)CC(C)C)C(=O)CCc1ccccc1)C[C@@H](N)CCCCN [HW-155-1]
- Aβ fibrils by TEM, prevention of aggregation ([1]; Aβ40 monomers 2.5 μM): not seen
- Aβ fibrils by TEM, disassembling aggregation ([1]; pre-formed Aβ40 aggregates 2.5 μM): not seen
- death of N2a cells ([2]; 0.5 equiv. compound pre-incubated with Aβ42, Aβ42 alone kills 30%): 25%
- toxicity of Aβ42 / death of N2a cells ([2]; 1 equiv. compound pre-incubated with Aβ42): almost completely removes the toxicity
- on-bead binding to Aβ40 (screening outcome) [3]: hit
- inhibition at 1 µM ([4]; 1 μM compound, 2.5 μM Aβ40, first 2 h of incubation (FIG. 14B), read-out: inhibition of Aβ aggregation): ~50%
- potency relative to KLVFF ([4]; ThT assay, Aβ40): at least 100 fold
